T/C data for 17 molecules are collected here from PubChem BioAssay AID248 (DTP/NCI, 2004).

The structures appear in SMILES notation. Where “and” joins values, the source holds several entries; their conditions need not be identical. Equal values may be shown once. Toxic doses and inconclusive results are not listed.

This assay deals with L1210 leukemia ip in BDF1 mice, survival T/C. The assay can be described thus: NCI In Vivo Anticancer Drug Screen. Data for tumor model L1210 Leukemia (intraperitoneal) in B6D2F1 (BDF1) mice. To be noted: endpoint: mean survival time, higher = longer survival. A digest of the protocol: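 Read-out is survival time, reported as the treated-group measurement over the vehicle-control measurement.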

Where [1] appears, read: dose: 100.0 mg/kg/injection, schedule: Q04DX003 (ip), vehicle: saline.
Where [2] appears, read: dose: 100.0 mg/kg/injection, schedule: Q01DX001 (ip), vehicle: saline.
The mark [3] stands for this setting: dose: 200.0 mg/kg/injection, schedule: Q01DX001 (ip), vehicle: saline.
Setting [4] is: dose: 100.0 mg/kg/injection, schedule: Q01DX009 (ip), vehicle: saline.
Where [5] appears, read: dose: 25.0 mg/kg/injection, schedule: Q04DX003 (ip), vehicle: saline with Tween-80.
Where [6] appears, read: dose: 100.0 mg/kg/injection, schedule: Q01DX009 (ip), vehicle: Klucel (hydroxypropylcellulose) (HPC).
Setting [7] is: dose: 200.0 mg/kg/injection, schedule: Q01DX009 (ip), vehicle: Klucel (hydroxypropylcellulose) (HPC).
[8] abbreviates: dose: 400.0 mg/kg/injection, schedule: Q01DX009 (ip), vehicle: Klucel (hydroxypropylcellulose) (HPC).
The mark [9] stands for this setting: dose: 100.0 mg/kg/injection, schedule: Q04DX003 (ip), vehicle: saline with Tween-80.
Where [10] appears, read: dose: 100.0 mg/kg/injection, schedule: Q04DX003 (ip), vehicle: Klucel (hydroxypropylcellulose) (HPC).
Setting [11] is: dose: 200.0 mg/kg/injection, schedule: Q04DX003 (ip), vehicle: Klucel (hydroxypropylcellulose) (HPC).
[12] abbreviates: dose: 400.0 mg/kg/injection, schedule: Q04DX003 (ip), vehicle: Klucel (hydroxypropylcellulose) (HPC).

For the molecule `Nc1ncnc2nc[nH]c12.[Tl]`, the T/C is 95 % of control (dose: 3.12 mg/kg/injection, schedule: Q01DX009 (ip), vehicle: water); 103 % of control (dose: 3.12 mg/kg/injection, schedule: Q04DX003 (ip), vehicle: water); 95 % of control (dose: 6.25 mg/kg/injection, schedule: Q01DX009 (ip), vehicle: water); 108 % of control (dose: 6.25 mg/kg/injection, schedule: Q04DX003 (ip), vehicle: water); 105 % of control (dose: 12.5 mg/kg/injection, schedule: Q04DX003 (ip), vehicle: water).
With `Cc1nc(C)c2c(c1C)-c1ccccc1C2=O`, the T/C is 104 % of control (dose: 50.0 mg/kg/injection, schedule: Q01DX009 (ip), vehicle: other); 108 % of control (dose: 50.0 mg/kg/injection, schedule: Q01DX009 (ip), vehicle: saline + alcohol); 100 % of control (dose: 100.0 mg/kg/injection, schedule: Q01DX009 (ip), vehicle: other); 106 % of control (dose: 100.0 mg/kg/injection, schedule: Q01DX009 (ip), vehicle: saline + alcohol); 102 % of control under setting [1]; 100 % of control (dose: 200.0 mg/kg/injection, schedule: Q01DX009 (ip), vehicle: other). Also, the T/C reads like this: (dose: 200.0 mg/kg/injection, schedule: Q01DX009 (ip), vehicle: saline + alcohol) 108 % of control; (dose: 200.0 mg/kg/injection, schedule: Q04DX003 (ip), vehicle: saline) 101 % of control; (dose: 400.0 mg/kg/injection, schedule: Q01DX009 (ip), vehicle: other) 107 % of control; (dose: 400.0 mg/kg/injection, schedule: Q01DX009 (ip), vehicle: saline + alcohol) 98 % of control; (dose: 400.0 mg/kg/injection, schedule: Q04DX003 (ip), vehicle: saline) 107 % of control; (dose: 500.0 mg/kg/injection, schedule: Q01DX009 (ip), vehicle: other) 95 % of control.
On to `CC(=O)N1C=Cn2c(cnc2C)C1O` (stereo not drawn), for which the T/C is, setting by setting: (dose: 100.0 mg/kg/injection, schedule: Q01DX009 (ip), vehicle: water) 104 % of control; (dose: 100.0 mg/kg/injection, schedule: Q04DX003 (ip), vehicle: water) 109 % of control; (dose: 200.0 mg/kg/injection, schedule: Q01DX009 (ip), vehicle: water) 94 % of control; (dose: 200.0 mg/kg/injection, schedule: Q04DX003 (ip), vehicle: water) 102 % of control; (dose: 400.0 mg/kg/injection, schedule: Q04DX003 (ip), vehicle: water) 98 % of control.
Consider `O=C(O)c1cccc(-c2ccccc2)c1O`, for which the T/C was 97 % of control under setting [2] and 102 % of control under setting [3].
On to `CCOc1ccc(Br)cc1/C=N\N=C\c1cc(Br)ccc1OCC`, for which the T/C runs as follows: (dose: 25.0 mg/kg/injection, schedule: Q01DX009 (ip), vehicle: saline) 101 % of control; (dose: 50.0 mg/kg/injection, schedule: Q01DX009 (ip), vehicle: saline) 100 % of control; under setting [4], 100 % of control; under setting [1], 86 % of control.
As for `COC(C)CCC(=O)O.[Ag]` (stereo not drawn), the T/C is 95 % of control (dose: 6.25 mg/kg/injection, schedule: Q01DX009 (ip), vehicle: saline with Tween-80); 91 % of control (dose: 12.5 mg/kg/injection, schedule: Q01DX009 (ip), vehicle: saline with Tween-80); 91 % of control (dose: 12.5 mg/kg/injection, schedule: Q04DX003 (ip), vehicle: saline with Tween-80); 95 % of control (dose: 25.0 mg/kg/injection, schedule: Q01DX009 (ip), vehicle: saline with Tween-80); 96 % of control under setting [5].
`CC(=O)OC1CCCCC1N` (stereo not drawn): the T/C (dose: 100.0 mg/kg/injection, schedule: Q04DX002 (ip), vehicle: saline) was 100 % of control and 91 % of control; the T/C (dose: 200.0 mg/kg/injection, schedule: Q04DX002 (ip), vehicle: saline) was 92 % of control and 103 % of control; the T/C (dose: 400.0 mg/kg/injection, schedule: Q04DX002 (ip), vehicle: saline) was 103 % of control and 114 % of control.
`CC1=C2CC3CCC(C)C2(CC1)C3(C)C` (stereo not drawn): the T/C runs as follows: under setting [4], 88 % of control; (dose: 400.0 mg/kg/injection, schedule: Q01DX009 (ip), vehicle: saline) 87 % of control.
Regarding `CCc1c(C=O)[nH]c(=S)n(C)c1=O`, the T/C was 104 % of control (dose: 100.0 mg/kg/injection, schedule: Q01DX001 (ip), vehicle: Klucel (hydroxypropylcellulose) (HPC)); 108 % of control under setting [6]; 98 % of control (dose: 200.0 mg/kg/injection, schedule: Q01DX001 (ip), vehicle: Klucel (hydroxypropylcellulose) (HPC)); 88 % of control under setting [7]; 101 % of control (dose: 400.0 mg/kg/injection, schedule: Q01DX001 (ip), vehicle: Klucel (hydroxypropylcellulose) (HPC)); 98 % of control under setting [8].
`Cc1ccc2[nH]c3c(c2c1)CCCC3`: the T/C is, setting by setting: (dose: 50.0 mg/kg/injection, schedule: Q01DX001 (ip), vehicle: saline) 101 % of control; under setting [2], 101 % of control; under setting [3], 107 % of control; (dose: 400.0 mg/kg/injection, schedule: Q01DX001 (ip), vehicle: saline) 101 % of control.
For the molecule `Clc1ccc(OCc2sc3ccc(Cl)cc3c2CN2CCCCC2)cc1`, the T/C is, setting by setting: under setting [5], 88 % of control; (dose: 50.0 mg/kg/injection, schedule: Q04DX003 (ip), vehicle: saline with Tween-80) 87 % of control; under setting [9], 90 % of control and 92 % of control.
For the molecule `CC1CN=C(c2ccc(NC(=O)Nc3ccc(C(=O)Nc4ccc(C5=NCC(C)N5)cc4)cc3)cc2)N1` (stereo not drawn), the T/C is 96 % of control (dose: 0.23 mg/kg/injection, schedule: Q01DX009 (ip), vehicle: saline); 96 % of control (dose: 0.94 mg/kg/injection, schedule: Q01DX009 (ip), vehicle: saline); 150 % of control (dose: 7.5 mg/kg/injection, schedule: Q01DX Z (ip), vehicle: saline); 204 % of control (dose: 15.0 mg/kg/injection, schedule: Q01DX Z (ip), vehicle: other); 277 % of control (dose: 15.0 mg/kg/injection, schedule: Q01DX Z (ip), vehicle: saline); 103 % of control (dose: 15.0 mg/kg/injection, schedule: Q01DX Z (oral), vehicle: saline). The T/C reads like this: (dose: 30.0 mg/kg/injection, schedule: Q01DX Z (ip), vehicle: other) 115 % of control; (dose: 30.0 mg/kg/injection, schedule: Q01DX Z (oral), vehicle: saline) 103 % of control; (dose: 60.0 mg/kg/injection, schedule: Q01DX Z (oral), vehicle: saline) 103 % of control; (dose: 120.0 mg/kg/injection, schedule: Q01DX Z (oral), vehicle: saline) 102 % of control.
With `C#CC(=O)c1ccccc1`, the T/C is 94 % of control (dose: 4.7 mg/kg/injection, schedule: Q01DX009 (ip), vehicle: saline with Tween-80); 98 % of control (dose: 18.8 mg/kg/injection, schedule: Q01DX001 (ip), vehicle: saline); 104 % of control (dose: 37.5 mg/kg/injection, schedule: Q01DX001 (ip), vehicle: saline).
Turning to `Clc1ccccc1C(N=Cc1ccc[nH]1)(c1ccccc1)c1ccccc1`, the T/C under setting [10] is 90 % of control, the T/C under setting [11] was 93 % of control and the T/C under setting [12] is 93 % of control.
`C=CC[P+](CCCC)(CCCC)CCCC`: the T/C is, setting by setting: (dose: 6.25 mg/kg/injection, schedule: Q04DX003 (ip), vehicle: saline) 102 % of control; (dose: 12.5 mg/kg/injection, schedule: Q04DX003 (ip), vehicle: saline) 91 % of control.
Consider `O=S(=O)(c1ccccc1)c1ccccc1`, for which the T/C was 104 % of control under setting [10]; 95 % of control under setting [9]; 111 % of control under setting [11]; 103 % of control (dose: 200.0 mg/kg/injection, schedule: Q04DX003 (ip), vehicle: saline with Tween-80); 87 % of control under setting [12]; 89 % of control (dose: 400.0 mg/kg/injection, schedule: Q04DX003 (ip), vehicle: saline with Tween-80).
Turning to `O=C(NCc1ccc(Cl)c(Cl)c1)Nc1ccccc1Cl`, the T/C runs as follows: under setting [6], 97 % of control; under setting [7], 100 % of control; under setting [8], 103 % of control.
